Measurements: PMC12203311, “Design, synthesis, in silico and in vitro evaluation of pyrrole–indole hybrids as dual tubulin and aromatase inhibitors with potent anticancer activities” (RSC Advances, 2025)

Experiments:
[1] = system: MDA-MB-231/ATCC; assay: NCI60 five-dose screen; format: cell-based; settings: Homo sapiens, breast cancer; for CC50: read-out: LC50 (the source's name)
[2] = system: M14; assay: NCI60 five-dose screen; format: cell-based; settings: Homo sapiens, M14, melanoma; for CC50: read-out: LC50 (the source's name)
[3] = system: NCI-H460; assay: NCI60 five-dose screen; format: cell-based; settings: Homo sapiens, NCI-H460, NSC lung cancer; for CC50: read-out: LC50 (the source's name)
[4] = system: MOLT-4; assay: NCI60 five-dose screen; format: cell-based; settings: Homo sapiens, MOLT-4, leukemia; for CC50: read-out: LC50 (the source's name)
[5] = system: NCI-H226; assay: NCI60 five-dose screen; format: cell-based; settings: Homo sapiens, NCI-H226, NSC lung cancer; for CC50: read-out: LC50 (the source's name)
[6] = system: HCT-15; assay: NCI60 five-dose screen; format: cell-based; settings: Homo sapiens, HCT-15, colon cancer; for CC50: read-out: LC50 (the source's name)
[7] = system: SNB-19; assay: NCI60 five-dose screen; format: cell-based; settings: Homo sapiens, SNB-19, CNS cancer; for CC50: read-out: LC50 (the source's name)
[8] = system: NCI/ADR-RES; assay: NCI60 five-dose screen; format: cell-based, human; settings: Homo sapiens, ovarian cancer; for CC50: read-out: LC50 (the source's name)
[9] = system: SW-620; assay: NCI60 five-dose screen; format: cell-based; settings: Homo sapiens, SW-620, colon cancer; for CC50: read-out: LC50 (the source's name)
[10] = system: OVCAR-8; assay: NCI60 five-dose screen; format: cell-based; settings: Homo sapiens, OVCAR-8, ovarian cancer; for CC50: read-out: LC50 (the source's name)
[11] = system: OVCAR-4; assay: NCI60 five-dose screen; format: cell-based; settings: Homo sapiens, OVCAR-4, ovarian cancer; for CC50: read-out: LC50 (the source's name)
[12] = system: NCI-H322M; assay: NCI60 five-dose screen; format: cell-based; settings: Homo sapiens, NSC lung cancer; for CC50: read-out: LC50 (the source's name)
[13] = system: UACC-257; assay: NCI60 five-dose screen; format: cell-based; settings: Homo sapiens, UACC-257, melanoma; for CC50: read-out: LC50 (the source's name)
[14] = system: A549/ATCC; assay: NCI60 five-dose screen; format: cell-based; settings: Homo sapiens, NSC lung cancer; for CC50: read-out: LC50 (the source's name)
[15] = biological target: T1, Human CYP19 (aromatase) (Homo sapiens, UniProt P11511); assay: Aromatase inhibition assay (DBF fluorometric substrate); format: biochemical; settings: active defined as IC50 < 12.5 µM
T1 construct: purchased GENTEST, Woburn, MA 456260; host or cells: baculovirus/insect cells
T1 sequence (P11511 1-503): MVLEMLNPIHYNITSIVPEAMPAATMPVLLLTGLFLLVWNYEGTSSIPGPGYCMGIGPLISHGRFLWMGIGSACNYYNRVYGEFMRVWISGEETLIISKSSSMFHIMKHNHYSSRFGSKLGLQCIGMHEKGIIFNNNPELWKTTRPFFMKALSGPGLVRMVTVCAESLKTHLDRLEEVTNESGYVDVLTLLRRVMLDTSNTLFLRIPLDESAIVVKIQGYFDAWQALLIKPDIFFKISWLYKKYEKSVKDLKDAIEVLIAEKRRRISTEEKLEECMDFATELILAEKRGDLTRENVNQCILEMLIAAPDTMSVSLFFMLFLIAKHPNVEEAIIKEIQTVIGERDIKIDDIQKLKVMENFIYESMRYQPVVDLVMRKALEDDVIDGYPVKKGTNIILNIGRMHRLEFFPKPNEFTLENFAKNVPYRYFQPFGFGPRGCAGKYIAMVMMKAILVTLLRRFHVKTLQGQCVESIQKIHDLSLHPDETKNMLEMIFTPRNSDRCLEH
Procedure, shortened: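 Insect-cell-expressed human CYP19 Supersomes with oxidoreductase turned over DBF for 30 min at 37 °C after a 10 min 37 °C pre-incubation with cofactor. NaOH quench; product measured by fluorescence, excitation 490 nm, emission 530 nm.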

[16] = system: SK-OV-3; assay: NCI60 five-dose screen; format: cell-based; settings: Homo sapiens, SK-OV-3, ovarian cancer; for CC50: read-out: LC50 (the source's name)
[17] = system: MDA-MB-435; assay: NCI60 five-dose screen; format: cell-based, human; settings: Homo sapiens; for CC50: MDA-MB-435, MDA-MB-435, melanoma, read-out: LC50 (the source's name); for GI50: MDA-MB-435, melanoma
[18] = system: KM12; assay: NCI60 five-dose screen; format: cell-based; settings: Homo sapiens, KM12, colon cancer; for CC50: read-out: LC50 (the source's name)
[19] = system: MALME-3M; assay: NCI60 five-dose screen; format: cell-based; settings: Homo sapiens, melanoma; for CC50: read-out: LC50 (the source's name)
[20] = system: HS 578T; assay: NCI60 five-dose screen; format: cell-based; settings: Homo sapiens, breast cancer; for CC50: read-out: LC50 (the source's name)
[21] = system: RXF 393; assay: NCI60 five-dose screen; format: cell-based; settings: Homo sapiens, RXF 393, renal cancer; for CC50: read-out: LC50 (the source's name)
[22] = system: NCI-H522; assay: NCI60 five-dose screen; format: cell-based; settings: Homo sapiens, NCI-H522, NSC lung cancer; for CC50: read-out: LC50 (the source's name)
[23] = system: DU-145; assay: NCI60 five-dose screen; format: cell-based; settings: Homo sapiens, DU-145, prostate cancer; for CC50: read-out: LC50 (the source's name)
[24] = system: MCF7; assay: NCI60 five-dose screen; format: cell-based; settings: Homo sapiens, MCF7, breast cancer; for CC50: read-out: LC50 (the source's name)
[25] = system: SF-539; assay: NCI60 five-dose screen; format: cell-based; settings: Homo sapiens, SF-539, CNS cancer; for CC50: read-out: LC50 (the source's name)
[26] = system: K-562; assay: NCI60 five-dose screen; format: cell-based; settings: Homo sapiens, K562, K-562, leukemia; for CC50: read-out: LC50 (the source's name)
[27] = system: EKVX; assay: NCI60 five-dose screen; format: cell-based; settings: Homo sapiens, NSC lung cancer; for CC50: read-out: LC50 (the source's name)

SMILES: Cc1[nH]c(/C=N/NC(=O)c2[nH]c3ccc(Br)cc3c2-c2ccccc2)c(C)c1[N+](=O)[O-] [Derivative 3r, (E)-5-Bromo-N′-((3,5-dimethyl-4-nitro-1H-pyrrol-2-yl)methylene)-3-phenyl-1H-indole-2-carbohydrazide]
- GI50 [1]: 3.56 µM
- CC50 [1]: 40.5 µM
- GI50 [2]: 2.54 µM
- CC50 [2]: 36.3 µM
- GI50 [3]: 1.87 µM
- CC50 [3]: 8.05 µM
- GI50 [4]: 2.29 µM
- CC50 [4]: > 100 µM
- GI50 [5]: 3.78 µM
- CC50 [5]: 40.6 µM
- GI50 [6]: 2.41 µM
- CC50 [6]: 26.4 µM
- GI50 [7]: 3.45 µM
- CC50 [7]: 43.1 µM
- GI50 [8]: 1.89 µM
- CC50 [8]: 9.15 µM
- GI50 [9]: 2.06 µM
- CC50 [9]: 19.1 µM
- GI50 [10]: 3.08 µM
- CC50 [10]: 36.5 µM
- GI50 [11]: 1.97 µM
- CC50 [11]: 18.8 µM
- GI50 [12]: 4.22 µM
- CC50 [12]: 89.5 µM
- GI50 [13]: 3.13 µM
- CC50 [13]: 48.1 µM
- GI50 [14]: 3.19 µM
- CC50 [14]: 35.6 µM
- IC50 [15]: 0.2 ± 0.1 µM
- GI50 [16]: 3.23 µM
- CC50 [16]: 39.2 µM
- CC50 [17]: 17.9 µM
- GI50 [17]: 1.77 µM
- GI50 [18]: 1.92 µM
- CC50 [18]: 11.6 µM
- GI50 [19]: 1.99 µM
- CC50 [19]: 28.5 µM
- GI50 [20]: 2.43 µM
- CC50 [20]: 97.2 µM
- GI50 [21]: 1.7 µM
- CC50 [21]: 15.9 µM
- GI50 [22]: 2.43 µM
- CC50 [22]: 29.6 µM
- GI50 [23]: 3.48 µM
- CC50 [23]: 34.9 µM
- GI50 [24]: 2.57 µM
- CC50 [24]: 29.9 µM
- GI50 [25]: 3.51 µM
- CC50 [25]: 35.7 µM
- GI50 [26]: 2.69 µM
- CC50 [26]: > 100 µM
- GI50 [27]: 3.34 µM
- CC50 [27]: 34.9 µM

SMILES: CCc1ccc(/C=N/NC(=O)c2[nH]c3ccc(Br)cc3c2-c2ccccc2)[nH]1 [Derivative 3s, (E)-5-Bromo-N′-((5-ethyl-1H-pyrrol-2-yl)methylene)-3-phenyl-1H-indole-2-carbohydrazide]
- GI50 [1]: 0.63 µM
- CC50 [1]: 48.4 µM
- GI50 [2]: 0.318 µM
- CC50 [2]: 38.7 µM
- GI50 [3]: 0.396 µM
- CC50 [3]: 43.5 µM
- GI50 [4]: 0.464 µM
- CC50 [4]: > 100 µM
- GI50 [5]: 0.506 µM
- CC50 [5]: 32.3 µM
- GI50 [6]: 0.349 µM
- CC50 [6]: 37.4 µM
- GI50 [7]: 1.82 µM
- CC50 [7]: 51.8 µM
- GI50 [8]: 0.253 µM
- CC50 [8]: 30.2 µM
- GI50 [9]: 0.558 µM
- CC50 [9]: 43.2 µM
- GI50 [10]: 0.337 µM
- CC50 [10]: 25.2 µM
- GI50 [11]: 2.41 µM
- CC50 [11]: 53.7 µM
- GI50 [12]: 1.73 µM
- CC50 [12]: 64.6 µM
- GI50 [13]: 1.32 µM
- CC50 [13]: 64.7 µM
- GI50 [14]: 0.399 µM
- CC50 [14]: 70.3 µM
- IC50 [15]: 4.6 ± 0.5 µM
- GI50 [16]: 0.514 µM
- CC50 [16]: 50.1 µM
- CC50 [17]: 34 µM
- GI50 [17]: 0.227 µM
- GI50 [18]: 0.289 µM
- CC50 [18]: 37.5 µM
- GI50 [19]: 0.88 µM
- CC50 [19]: 46.5 µM
- GI50 [20]: 0.294 µM
- CC50 [20]: > 100 µM
- GI50 [21]: 0.194 µM
- CC50 [21]: 28.9 µM
- GI50 [22]: 0.183 µM
- CC50 [22]: 28 µM
- GI50 [23]: 0.418 µM
- CC50 [23]: 36.7 µM
- GI50 [24]: 0.369 µM
- CC50 [24]: 45.9 µM
- GI50 [25]: 0.225 µM
- CC50 [25]: 29.8 µM
- GI50 [26]: 0.338 µM
- CC50 [26]: > 100 µM
- GI50 [27]: 0.453 µM
- CC50 [27]: 43 µM
